# Results: the supplement of paper PMC10307832
# Compound: O=C(/C=C/c1ccccc1)NC(NC(=S)Nc1cccc2cccnc12)C(Cl)(Cl)Cl [Salubrinal] + COc1cccc2cc(-c3nc([C@H]4CC[C@H](C(=O)O)CC4)n4ncnc(N)c34)[nH]c12 [OSI-027] (partner 0.5 µM)
# Experiment: relative viability (nuclei count vs DMSO), 5 days (fraction); higher = more cells survive
# Conditions: first compound 0.08 µM
# How it was run: (§1)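 After 5 days of treatment, lung cancer cells in 1536-well plates were fixed and stained in a single step (final 0.05% Triton X-100, 1% formaldehyde, 1 ug/ml Hoechst) and their nuclei counted on 4× images. Treatment had been applied by pin tool the day after seeding as one drug alone or as a fixed anchor-drug dose with five library-drug doses (not always all listed) in √10 steps. Relative viability is the nuclei count of treated wells divided by that of vehicle wells, and values are medians of duplicate plates.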
row,Cell Line,relative viability
1,COR-L23,0.868
2,COR-L 105,0.74
3,LOU-NH91,0.721
4,NCI-H2405,0.614
5,HOP-62,0.819
6,HCC-44,0.371
7,SK-MES-1,0.623
8,LU99A,0.241
9,BEN,0.322
10,HARA,0.539
11,HCC-78,0.363
12,NCI-H322M,0.471
13,LCLC-97TM1,0.574
14,NCI-H2009,0.63
15,A-427,0.409
16,NCI-H661,0.781
17,NCI-H1734,0.724

row,Cell Line,relative viability
1,NCI-H460,1.21
2,NCI-H2347,0.289
3,SK-LU-1,0.399
4,201T,0.933
5,NCI-H1915,0.628
6,HCC-827,0.88
7,LXF-289,0.784
8,NCI-H23,0.59
9,NCI-H647,0.76
10,CAL-12T,0.444
11,NCI-H1651,0.954
12,EPLC-272H,0.297
13,NCI-H2228,0.5
14,NCI-H1792,0.97
15,NCI-H1355,0.409
16,NCI-H3122,1.21

# Same assay, conditions: first compound 0.253 µM
row,Cell Line,relative viability
1,COR-L23,0.547
2,COR-L 105,0.632
3,LOU-NH91,0.708
4,NCI-H2405,0.643
5,HOP-62,0.765
6,HCC-44,0.411
7,SK-MES-1,0.629
8,LU99A,0.29
9,BEN,0.407
10,HARA,0.557
11,HCC-78,0.364
12,NCI-H322M,0.536
13,LCLC-97TM1,0.433
14,NCI-H2009,0.613
15,A-427,0.516
16,NCI-H661,0.58

row,Cell Line,relative viability
1,NCI-H1734,0.572
2,NCI-H460,0.406
3,NCI-H2347,0.308
4,SK-LU-1,0.286
5,201T,0.799
6,NCI-H1915,0.609
7,HCC-827,0.794
8,LXF-289,0.647
9,NCI-H23,0.573
10,NCI-H647,0.671
11,CAL-12T,0.541
12,NCI-H1651,0.599
13,EPLC-272H,0.286
14,NCI-H2228,0.468
15,NCI-H1355,0.341
16,NCI-H3122,0.885

# Same assay, conditions: first compound 0.8 µM
row,Cell Line,relative viability
1,COR-L23,1.1
2,COR-L 105,0.758
3,LOU-NH91,0.744
4,NCI-H2405,0.664
5,HOP-62,1.11
6,HCC-44,0.759
7,SK-MES-1,0.675
8,LU99A,0.306
9,BEN,0.318
10,HARA,0.582
11,HCC-78,0.435
12,NCI-H322M,0.565
13,LCLC-97TM1,0.671
14,NCI-H2009,0.659
15,A-427,0.568
16,NCI-H661,0.77
17,NCI-H1734,0.633

row,Cell Line,relative viability
1,NCI-H460,1.03
2,NCI-H2347,0.379
3,SK-LU-1,0.311
4,201T,0.863
5,NCI-H1915,0.716
6,HCC-827,0.822
7,LXF-289,0.953
8,NCI-H23,0.647
9,NCI-H647,0.6
10,CAL-12T,0.606
11,NCI-H1651,0.794
12,EPLC-272H,0.293
13,NCI-H2228,0.596
14,NCI-H1792,0.626
15,NCI-H1355,0.505
16,NCI-H3122,1.32

# Same assay, conditions: first compound 2.53 µM
row,Cell Line,relative viability
1,COR-L23,0.794
2,COR-L 105,0.735
3,LOU-NH91,0.737
4,NCI-H2405,0.637
5,HOP-62,0.849
6,HCC-44,0.501
7,SK-MES-1,0.448
8,LU99A,0.294
9,BEN,0.309
10,HARA,0.524
11,HCC-78,0.362
12,NCI-H322M,0.57
13,LCLC-97TM1,0.56
14,NCI-H2009,0.6
15,A-427,0.437
16,NCI-H661,0.705
17,NCI-H1734,0.542

row,Cell Line,relative viability
1,NCI-H460,0.514
2,NCI-H2347,0.349
3,SK-LU-1,0.358
4,201T,0.782
5,NCI-H1915,0.682
6,HCC-827,0.788
7,LXF-289,0.847
8,NCI-H23,0.539
9,NCI-H647,0.638
10,CAL-12T,0.542
11,NCI-H1651,0.827
12,EPLC-272H,0.258
13,NCI-H2228,0.558
14,NCI-H1792,0.75
15,NCI-H1355,0.4
16,NCI-H3122,1.03

# Same assay, conditions: first compound 8 µM
row,Cell Line,relative viability
1,COR-L23,0.71
2,COR-L 105,0.613
3,LOU-NH91,0.688
4,NCI-H2405,0.599
5,HOP-62,0.714
6,HCC-44,0.484
7,SK-MES-1,0.445
8,LU99A,0.265
9,BEN,0.324
10,HARA,0.462
11,HCC-78,0.361
12,NCI-H322M,0.471
13,LCLC-97TM1,0.601
14,NCI-H2009,0.498
15,A-427,0.452
16,NCI-H661,0.603
17,NCI-H1734,0.636

row,Cell Line,relative viability
1,NCI-H460,0.317
2,NCI-H2347,0.422
3,SK-LU-1,0.267
4,201T,0.732
5,NCI-H1915,0.637
6,HCC-827,0.668
7,LXF-289,0.69
8,NCI-H23,0.606
9,NCI-H647,0.604
10,CAL-12T,0.454
11,NCI-H1651,0.563
12,EPLC-272H,0.249
13,NCI-H2228,0.547
14,NCI-H1792,0.684
15,NCI-H1355,0.398
16,NCI-H3122,1.07

# Compound: Cc1ccc2nc(NCCN)c3ncc(C)n3c2c1 + CS(=O)(=O)CCNCc1ccc(-c2ccc3ncnc(Nc4ccc(OCc5cccc(F)c5)c(Cl)c4)c3c2)o1 [Lapatinib] (partner 2 µM)
# Experiment: as above
# Conditions: first compound 0.04 µM
# How it was run: as §1
row,Cell Line,relative viability
1,COR-L23,1.27
2,COR-L 105,0.451
3,LOU-NH91,0.784
4,NCI-H2405,1.06
5,HOP-62,1.13
6,HCC-44,0.961
7,SK-MES-1,0.503
8,LU99A,1
9,BEN,0.894
10,HARA,0.748
11,HCC-78,1.03
12,NCI-H322M,0.535
13,LCLC-97TM1,1.06
14,NCI-H2009,1.03
15,A-427,1.13
16,NCI-H661,0.587
17,NCI-H1734,1.11

row,Cell Line,relative viability
1,NCI-H460,0.999
2,NCI-H2347,0.99
3,SK-LU-1,1.06
4,201T,1.07
5,NCI-H1915,1.01
6,HCC-827,0.21
7,LXF-289,0.956
8,NCI-H23,1.09
9,NCI-H647,1.08
10,CAL-12T,0.892
11,NCI-H1651,0.853
12,EPLC-272H,1.04
13,NCI-H2228,1.07
14,NCI-H1792,0.944
15,NCI-H1355,1.02
16,NCI-H3122,1.06

# Same assay, conditions: first compound 0.1265 µM
row,Cell Line,relative viability
1,COR-L23,0.874
2,COR-L 105,0.351
3,LOU-NH91,0.846
4,NCI-H2405,1.06
5,HOP-62,0.845
6,HCC-44,0.993
7,SK-MES-1,0.512
8,LU99A,0.944
9,BEN,0.6
10,HARA,0.863
11,HCC-78,0.738
12,NCI-H322M,0.593
13,LCLC-97TM1,1.42
14,NCI-H2009,0.958
15,A-427,1.06
16,NCI-H661,0.407

row,Cell Line,relative viability
1,NCI-H1734,1
2,NCI-H460,1
3,NCI-H2347,0.99
4,SK-LU-1,0.951
5,201T,1.03
6,HCC-827,0.207
7,LXF-289,0.882
8,NCI-H23,1.12
9,NCI-H647,1.02
10,CAL-12T,0.714
11,NCI-H1651,0.879
12,EPLC-272H,0.981
13,NCI-H2228,1.3
14,NCI-H1792,0.904
15,NCI-H1355,0.981
16,NCI-H3122,0.994

# Same assay, conditions: first compound 0.4 µM
row,Cell Line,relative viability
1,COR-L23,0.924
2,COR-L 105,0.352
3,LOU-NH91,0.782
4,NCI-H2405,1.06
5,HOP-62,0.688
6,HCC-44,1.01
7,SK-MES-1,0.493
8,LU99A,1.06
9,BEN,0.827
10,HARA,0.553
11,HCC-78,0.775
12,NCI-H322M,0.586
13,LCLC-97TM1,0.78
14,NCI-H2009,0.88
15,A-427,1.02
16,NCI-H661,0.43
17,NCI-H1734,1.13

row,Cell Line,relative viability
1,NCI-H460,0.886
2,NCI-H2347,0.908
3,SK-LU-1,0.889
4,201T,0.989
5,NCI-H1915,0.68
6,HCC-827,0.191
7,LXF-289,0.894
8,NCI-H23,1.19
9,NCI-H647,0.948
10,CAL-12T,0.674
11,NCI-H1651,0.841
12,EPLC-272H,0.777
13,NCI-H2228,0.884
14,NCI-H1792,0.837
15,NCI-H1355,0.962
16,NCI-H3122,0.997

# Same assay, conditions: first compound 1.265 µM
row,Cell Line,relative viability
1,COR-L23,0.837
2,COR-L 105,0.399
3,LOU-NH91,0.777
4,NCI-H2405,1.08
5,HOP-62,0.81
6,HCC-44,0.99
7,SK-MES-1,0.447
8,LU99A,0.957
9,BEN,0.77
10,HARA,0.691
11,HCC-78,0.861
12,NCI-H322M,0.59
13,LCLC-97TM1,1.33
14,NCI-H2009,0.928
15,A-427,0.957
16,NCI-H1734,1.07

row,Cell Line,relative viability
1,NCI-H460,0.898
2,NCI-H2347,0.987
3,SK-LU-1,0.948
4,201T,1.17
5,NCI-H1915,0.991
6,HCC-827,0.195
7,LXF-289,0.873
8,NCI-H23,1.15
9,NCI-H647,1.13
10,CAL-12T,0.553
11,NCI-H1651,0.894
12,EPLC-272H,0.829
13,NCI-H2228,1.15
14,NCI-H1792,0.857
15,NCI-H1355,0.952
16,NCI-H3122,1.12

# Same assay, conditions: first compound 4 µM
row,Cell Line,relative viability
1,COR-L23,0.853
2,COR-L 105,0.339
3,LOU-NH91,0.766
4,NCI-H2405,0.835
5,HOP-62,1.02
6,HCC-44,1.01
7,SK-MES-1,0.472
8,LU99A,0.986
9,BEN,0.709
10,HARA,0.821
11,HCC-78,0.697
12,NCI-H322M,0.603
13,LCLC-97TM1,1
14,NCI-H2009,0.836
15,A-427,1.06
16,NCI-H661,0.458
17,NCI-H1734,0.941

row,Cell Line,relative viability
1,NCI-H460,0.745
2,NCI-H2347,0.87
3,SK-LU-1,0.852
4,201T,0.98
5,NCI-H1915,0.947
6,HCC-827,0.209
7,LXF-289,0.902
8,NCI-H23,0.937
9,NCI-H647,0.707
10,CAL-12T,0.502
11,NCI-H1651,0.737
12,EPLC-272H,0.977
13,NCI-H2228,1.04
14,NCI-H1792,0.81
15,NCI-H1355,0.988
16,NCI-H3122,1
